The values below come from article PMC9006931, “Altered Response Pattern following AZD5582 Treatment of SIV-Infected, ART-Suppressed Rhesus Macaque Infants” (Journal of Virology, 2022).

Read-outs that look alike come from different tables or passages of the source.

On the set-up of series [1]: method as in PMID 31969707. The conditions noted are these: adult RMs (n = 7), matched doses, plasma; cited from earlier work.
Series [2] has as its system SIV gag DNA in CD4+ T cells. Briefly: Cell-associated SIV DNA / RNA in CD4+ T cells. It is filed as in vivo. The note with it: before dose 1, 3dp- and 2wp-AZD5582 treatment, infant RMs. Here is the method: Plasma viral quantification was performed as described previously ([12]). The frozen cell pellet was lysed with proteinase K (100 μg/mL in 10 mM Tris-HCl pH 8) for 1h at 56°C. Quantification of SIVmac gag DNA was performed by quantitative PCR (qPCR) using the 5′ nuclease (TaqMan) assay with an ABI7500 system (PerkinElmer Life Sciences). The sequence of the forward primer for SIVmac gag was 5′-[…]-3′, the reverse primer sequence was 5′-[…]-3′, and the probe sequence was 5′-6-carboxyfluorescein (FAM)-[…]-6-carboxytetramethylrhodamine (TAMRA)-3′. 7.5 μL of cell lysate were mixed in a 50 μL reaction mixture containing 1× Platinum Buffer, 3.5 mM MgCl2, 0.2 mM dNTP, primers 200 nM, probe 150 nM, and 2U Platinum Taq. For cell number quantification, quantitative PCR was performed simultaneously for monkey albumin gene copy number. The sequence of the forward primer for albumin was F 5′-[…]-3′; the reverse primer sequence was 5′- ATGGTCGCCTGTTCACCAA-3′ and the probe sequence was 5′-[…]-3′ ([34]). The reactions were performed on a 7500 real-time PCR system (Applied Biosystems) with the following thermal program: 10 min at 95°C, followed by 40 cycles of denaturation at 95°C for 15 s and annealing at 60°C for 1 min.

For series [3], the system named is ncNF-κB pathway genes BIRC3 and NFkB2. Kind of series: Ex vivo AZD5582 stimulation of sorted naive and memory CD4+ T cells, target gene RT-qPCR. It counts as cell-based, rhesus macaque. The conditions noted are these: 1000 nM (n = 6) or 100 nM (n = 4) AZD5582, 24 h. The source says: We have previously shown that naive CD4^+ T cells are a major contributor to the viral reservoir in both SIV- and SHIV-infected infant macaques ([10], [11]). We were therefore interested to determine whether the dampened ART viremia that we observed in vivo was due to differential induction of ncNF-kB activation in naive and memory CD4^+ T cells following AZD5582 treatment. It is well documented that activation of naive CD4^+ T cells relies predominantly on cNF-κB and not the ncNF-κB pathway ([22]). […]
For cell sorting, peripheral CD4^+ T cells were first enriched by negative selection with the use of magnetic beads and column purification (nonhuman primate CD4^+ T cell isolation kit; Miltenyi). Enriched CD4^+ T cells were then stained with viability dye (Live/Dead Aqua) and previously determined volumes of the following fluorescently conjugated MAbs: CD3-AF700 (clone SP34-2), CD8-APC-Cy7 (clone SK1), CD95-PE-Cy5 (clone DX2), CD62L-PE (clone SK11), and CCR7-PE-Cy7 (clone 3D12) from BD Biosciences; CD4-BV650 from BioLegend. […]
Naïve and memory CD4^+ T cells were treated with 100 or 1000 nM AZD5582 for 24 h and then stored as a dry pellet until RNA extraction. […] Gene expression was normalized to TATA box binding protein (TBP) and the comparative threshold cycle (Ct) method (ΔΔCt) was used for relative quantification of gene expression. […]

The nature of series [4]: Plasma pharmacokinetics of AZD5582 in infant RMs (HPLC-MS/MS, NCA). It is filed as in vivo, rhesus macaque. Here is the method:
As a potential explanation for the dampened virologic response to AZD5582 observed in infant RMs, we investigated AZD5582 pharmacokinetics (PK) following the third dose using a sparse sampling design. Blood samples were collected immediately following infusion in 4 RMs and from 2 RMs per time point at 1 h, 2 h, 4 h, 8 h, and 24 h postinfusion. […] Noncompartmental analysis (NCA) was conducted to determine pharmacokinetic parameters in infants and compared with available PK data from adult historical controls of SIV-infected, ART-suppressed rhesus macaques (n = 7) given matched doses of AZD5582 (Fig. 4B) ([17]). […] Although corresponding data were not collected from adult macaques, we note that in infants the AUC0-24h was calculated as 239 ng × hr/mL.
Plasma samples were collected from RMs over 24 h following the start of a single 30 min intravenous infusion of AZD5582 using a previously published ([17]). A high-performance liquid chromatography-mass spectrometry (HPLC-MS/MS) method with a dynamic range of 0.2 to 1000 ng/mL. Noncompartmental analysis (NCA) was performed using Phoenix64 WinNonlin v8.1 software using the sparse sampling function to derive mean PK parameters. The linear up-log down trapezoidal rule was used to calculate AUC. The terminal elimination rate constant (kel) was estimated by fitting a linear regression line on a semilog plot to the individual concentration data constrained to observations from 4 to 24 h post start of infusion and used to calculate terminal elimination half-life. One observation below the assay’s limit of quantification was imputed at ½ the lower limit of quantification ([35]).

The mark [5] stands for this setting: rhesus monkey, in vivo, iv, 0.1 mg/kg.

As for `CN[C@@H](C)C(=O)N[C@H](C(=O)N1CCC[C@H]1C(=O)N[C@H]1c2ccccc2C[C@H]1OCC#CC#CCO[C@@H]1Cc2ccccc2[C@@H]1NC(=O)[C@@H]1CCCN1C(=O)[C@@H](NC(=O)[C@H](C)NC)C1CCCCC1)C1CCCCC1` [AZD5582], in series [1], the AUC0-2h is 0.512 µg·h/mL and the Cmax is 0.802 µg/mL. The “Cell-associated SIV RNA in peripheral CD4+ T cells” value in series [2] is listed as “remained stable”. Further, in series [3], the “Fold induction of BIRC3 gene expression, naive versus memory CD4+ T cells” value is “No significant difference” and the “Fold induction of NFkB2 gene expression, naive versus memory CD4+ T cells” value was “No significant difference”. Besides, the “Fold lower AUC0-2h in infants compared with adults” value in series [4] (infant vs adult RMs) is on record as 2.3 fold. Also, in series [4] (setting [5]), the AUC0-2h amounted to 0.223 µg·h/mL, the AUC0-24h stood at 0.239 µg·h/mL, the Cmax stood at 0.294 µg/mL and the “t1/2 (terminal elimination halflife)” value was found to be 9.9 h.
